Assays:
Format in all cases: cell-based, human
AKT pathway = experiment: Western blots of AKT pathway in Snu-387 cells; conditions: Snu-387 cells after knockdown
Procedure: (§1) Total proteins from NSCLC and HCC cells were extracted with radioimmuno-precipitation assay (RIPA) buffer ([…] NaCl, […] Tris-HCl, pH 7.5, 1% Triton, 0.1% SDS, 0.1% sodium deoxycholate and 1% Nonidet P40). Sample extract (50 μg) was resolved on 7.5-12% SDS-polyacrylamide gels (PAGE) using a mini-gel apparatus (Bio-Rad Laboratories) and transferred to Hybond-C extra nitrocellulose. Membranes were blocked for 1 h with 5% nonfat dry milk in Tris-buffered saline containing 0.05% Tween 20, incubated overnight with primary antibody, washed and incubated with secondary antibody, and visualized by chemiluminescence.
(§2) The following primary antibodies were used: anti-PTEN, anti-c-Jun, anti-p-c-Jun, anti-Fos, anti-p-JNK, anti-MMP3, anti-Mc1-1 (Santa Cruz), anti-TIMP3 (Millipore) anti-PI3K (BD Biosciences), anti-ERKs, anti-phospho ERKs, anti-AKT, anti-p-AKT, anti-GSK3b, anti-p-GSK3b (Ser9), anti-PAK1 anti-caspase-8,-3 and -9, anti-PARP, anti-cytochrome c (Cell signaling) and anti-MMP9, anti-FADD (Abcam), anti-1-actin antibody (Sigma). A secondary anti-rabbit or anti-mouse immunoglobulin G (IgG) antibody peroxidase conjugate (Chemicon) was used.
(§3) 2′-O-me-GFP miR (5′-[…] [SEQ ID No:17]) was used as control. Cells were grown in six well plate (1.7×10^6 per well) for 24 h and transfected 100 nmoli/L/well of 2′-O-me-oligoribonucleotides using lipofectamine 2000. […]

Snu-387 cells [1] = experiment: Migration and invasion assay in Snu-387 cells; conditions: Snu-387 cells after transfection
Procedure: (§4) Transwell insert chambers with […] porous membrane (Greiner bio-one) were used for the assay. Cells were washed three times with PBS and added to the top chamber in serum-free media. The bottom chamber was filled with media containing 10% FBS. Cells were incubated for 24 h at 37° C. in a 5% CO2 humidified incubator. To quantify migrating cells, cells on the top chamber were removed by using a cotton-tipped swab, and the migrated cells were fixed in PBS, 25% glutaraldehyde and stained with Crystal Violet stain, visualized under a phase-contrast microscope, and photographed. Cristal violet-stained cells were moreover solubilized in acetic acid and methanol (1:1) and absorbance was measured at 595 nm. The results are means of three independent experiments±S.D.
(§5) H460 and SK-Hep-1 cells were placed into the top chamber of a BD Falcon HTS FluoroBlok insert with a membrane containing […] pores (BD Biosciences) in […] of serum-free Dulbecco's modified Eagle medium in triplicate. […] The fluorescence of migrated cells was quantified using a fluorometer at excitation wavelengths of 485 nm and emission wavelengths of 530 nm and expressed as arbitrary fluorescence units. Data are expressed as mean±standard error of 4 separate determinations.

PTEN and TIMP3 [2] = experiment: Western blot of PTEN and TIMP3 in Calu-1 cells; conditions: Calu-1 cells after transfection
Procedure: as §1, §2, §3

Calu-1 cells [3] = experiment: Caspase 3/7 assay of TRAIL-induced apoptosis in Calu-1 cells; conditions: Calu-1 cells transfected 72 h, control 2′-O-me-scrambled miR
Procedure: (§6) Cells were grown in six well plate (1.7×10^6 per well) for 24 h and transfected 100 nmoli/L/well of 2′-O-me-oligoribonucleotides using lipofectamine 2000. RNA and proteins were extracted after 72 h from the transfection.
(§7) Cells were plated in 96-well plates in triplicate and incubated at 37° C. in a 5% CO2 incubator. Super-Killer TRAIL (Alexis Biochemicals) was used for 24-48 h at 400 ng ml-1. Cell viability was examined with 3-(4,5-dimethylthiazol-2-yl)-2,5-dipheniltetrazolium bromide (MTT)-Cell Titer 96 AQueous One Solution Cell Proliferation Assay (Promega), according to the manufacturer's protocol. Metabolically active cells were detected by adding 20 μl of MTT to each well. After 1 h of incubation, the plates were analyzed in a Multilabel Counter (Bio-Rad Laboratories). Apoptosis was assessed using Annexin V-FITC apoptosis detection kits followed by flowcytometric analysis and caspase 3/7 activity. […] Statistical analysis was done using two sample t test, assuming equal variance, and P value was calculated based on two-tailed test. For detection of caspase 3/7 activity, cells were cultured in 96-well plates and treated with TRAIL 400 ng/ml and analyzed using Caspase-Glo 3/7 Assay kit (Promega) according to the manufacturer's instructions. Continuous variables are expressed as mean values±standard deviation (s.d.).

PTEN and TIMP3 [4] = experiment: Western blot of PTEN and TIMP3 in Snu-387 cells; conditions: Snu-387 cells after transfection
Procedure: as §1, §2, §3

Calu-1 cells [5] = experiment: Migration and invasion assay in Calu-1 cells; conditions: Calu-1 cells after transfection
Procedure: as §4, §5

Snu-387 cells [6] = experiment: Caspase 3/7 assay of TRAIL-induced apoptosis in Snu-387 cells; conditions: Snu-387 cells transfected 72 h, control 2′-O-me-scrambled miR
Procedure: as §6, §7

miR-221 and miR-222 = experiment: qRT-PCR of miR-221 and miR-222 in Huh7 cells after anisomycin; design: dose or concentration left out as unconfirmed
Procedure: Real-time PCR was performed using a standard TaqMan PCR Kit protocol on an Applied Biosystems 7900HT Sequence Detection System (Applied Biosystems). The 10 μl PCR reaction included 0.67 μl RT product, 1 μl TaqMan Universal PCR Master Mix (Applied Biosystems), […]. The reactions were incubated in a 96-well plate at 95° C. for […], followed by 40 cycles of 95° C. for 15 s and 60° C. for 1 min. All reactions were run in triplicate. The threshold cycle (CT) is defined as the fractional cycle number at which the fluorescence passes the fixed threshold. The comparative CT method for relative quantization of gene expression (Applied Biosystems) was used to determine miRNA expression levels. The y axis represents the 2(-CT), or the relative expression of the different miRs. miRs expression was calculated relative to U44 and U48 rRNA and multiplied by 104. Experiments were carried out in triplicate for each data point, and data analysis was performed by using software (Bio-Rad).

c-Jun, PTEN and TIMP3 = experiment: Western blot in Huh7 cells after anisomycin
Procedure: as §1, §2

| Compound | AKT pathway (western blots) (AKT pathway) | cell migration and invasion (Snu-387 cells [1]) | PTEN and TIMP3 protein levels (western blot) (PTEN and TIMP3 [2]) | sensitivity to TRAIL-induced apoptosis (caspase 3/7 assay) (Calu-1 cells [3]) | PTEN and TIMP3 protein level (western blot) (PTEN and TIMP3 [4]) | cell migration and invasion (Calu-1 cells [5]) | sensitivity to TRAIL-induced apoptosis (caspase 3/7 assay) (Snu-387 cells [6]) | miR-221 expression increase (qRT-PCR) (miR-221 and miR-222) | miR-222 expression increase (qRT-PCR) (miR-221 and miR-222) | PTEN and TIMP3 expression levels (c-Jun, PTEN and TIMP3; Huh7 cells after anisomycin) | c-Jun activation (c-Jun, PTEN and TIMP3; Huh7 cells, total lysate, western blot) |
| --- | --- | --- | --- | --- | --- | --- | --- | --- | --- | --- | --- |
| 5′-gaaacccagcagacaauguagcu (antisense GAAACCCAGCAGACAAUGUAGCU; all 2'-O-methyl, backbone not given here) [2′-O-me-anti-miR-221] | inhibition of the AKT pathway | a decrease in cell migration and invasion | increased the protein levels of PTEN and TIMP3 | considerably sensitized these cells to TRAIL-induced apoptosis | increased the protein level of PTEN and TIMP3 | a decrease in cell migration and invasion | considerably sensitized these cells to TRAIL-induced apoptosis |  |  |  |  |
| 5′-gagacccagtagccagatgtagct (antisense GAGACCCAGTAGCCAGATGTAGCT; all 2'-O-methyl, backbone and T or U not given here) [2′-O-me-anti-miR-222] | inhibition of the AKT pathway | a decrease in cell migration and invasion | increased the protein levels of PTEN and TIMP3 | considerably sensitized these cells to TRAIL-induced apoptosis | increased the protein level of PTEN and TIMP3 | a decrease in cell migration and invasion | considerably sensitized these cells to TRAIL-induced apoptosis |  |  |  |  |
| COc1ccc(C[C@H]2NC[C@H](O)[C@H]2OC(C)=O)cc1 [anisomycin] |  |  |  |  |  |  |  | 80% | 40% | decreased drastically | induced c-Jun activation |

Source: US9212396B2, “Materials and methods useful for affecting tumor cell growth, migration and invasion” (The Ohio State University, priority 2009, dated 2015)
